Data: US8691870B2, “Use of isothiocyanates for treating cancer” (Mackay Memorial Hospital, priority 2011, dated 2014)
Read-outs that look alike come from different tables or passages of the source.

Columns and labels:
Assay type in all cases: cell-based, human
p-Chk-1 = experiment: Immunoblot analysis of p-Chk-1 in K562R cells; conditions: FIG. 7
Experimental: (§1) Cultured cells were lysed by use of well known lysing buffer, and total amount of proteins were determined by Bradford method. […] The separated proteins were then transferred to nitrocellulose membrane and non-specific binding was removed by TBST buffer (0.8% NaCl, 0.02% KCl, 25 mM Tris-HCl/pH 8.0 and 0.1% Tween-20) containing 4% skim milk. Antibodies including p-Plk-1, p-Chk-1, p-Chk-2, p-Cdc2, GAPDH, α-tubulin, β-tubulin, and p-histone H3 (purchased from Transduction Laboratories, Lexington, Ky., USA), were respectively dissolved in TBST buffer containing 2% skim milk and incubated with the separated protein bands at 4° C. for at least over night; followed by incubation with horseradish conjugated secondary antibodies at room temperature for about 30 min, and then detected by ECL chemiluminesance detection kit (Amersham Pharmacia Biotech, US).

p-Plk-1 = experiment: Immunoblot analysis of phosphorylated Plk-1 in K562R cells; conditions: FIG. 6
Experimental: as §1

PANC-1 cells [1] = experiment: Cell cycle analysis of PANC-1 cells; conditions: 24 hours
Experimental: (§2) The fixed cells were then warmed up to room temperature and treated with RNAase A for about 30 min. Precipitated cells were collected by centrifugation and re-suspended in a buffer solution containing propidium iodine (20 μg/ml) before being subject to flow cytometry analysis, where cell numbers at respective cell cycles were determined.

p-Cdc2 kinase = experiment: Immunoblot analysis of p-cdc2 kinase in K562R cells; conditions: FIG. 9
Experimental: as §1

[2] = tested on: imatinib resistant CML K562R cells; experiment: Cell cycle analysis (flow cytometry) of imatinib resistant CML K562R cells; conditions: 24 hours
Experimental: The CML cell line, K562R, was cultured in the presence of a continuous low dose of imatinib mesylate, which is also termed STI-571, to generate their resistance to imatinib. In operation, K562R cells were maintained in the DMEM supplemented with 10% fetal calf serum (FCS), 100 IU/ml penicillin, 100 μg/ml streptomycin, 2 mM glutamine and 0.2 μM imatinib in 5% CO2 at 37° C.
as §2
(§3) The imatinib resistant human chronic myelogenous leukemia (CML) cell line K562R was induced by procedures described above in the “Materials and Methods” Section. Anti-proliferative activity of I7557 and I7557 were respectively assessed by cell viability and cell cycle analysis, as well as by immunoblot and Liu's Staining.

β-tubulin = experiment: Immunoblot analysis of β-tubulin in K562R cells; conditions: FIG. 4
Experimental: as §1

[3] = tested on: phosphorylated histone H3; experiment: Immunoblot analysis of phosphorylated histone H3 in K562R cells; conditions: FIG. 10
Experimental: as §1

PANC-1 cells [4] = experiment: Radiation treatment and clonogenic assay, PANC-1 cells
Text: (§4) The drugs were then washed out, and cells were subject to radiation treatment. Specifically, 6 MeV electron beam energy was delivered by a linear accelerator (Clinac 1800, Varian Associates, Inc., Palo Alto, Calif., USA) with a rate of 2.4 Gy/min at various dose including 0, 0.5, 1, 2 and 4 Gy in a single fraction. Full electron equilibrium was ensured for each fraction by a parallel plate PR-60C ionization chamber ([…], Inc., Ramsey, N.Y., USA).
(§5) After radiation treatment, cells were returned to the culture for another 10 to 14 days; then were stained with 3% crystal violet and the numbers of colony (≧50 cells) were counted.
(§6) The colony is defined to consist of at least 50 cells.

cyclin B1 = experiment: Immunoblot analysis of cyclin B1 in K562R cells; conditions: FIG. 5
Experimental: as §1

BxPC-3 cells = experiment: Radiation treatment and clonogenic assay, BxPC-3 cells
Text: as §4, §5, §6

81T/VGH cells = experiment: MTT cell viability assay on 81T/VGH cells; set-up: key to Cell viability (MTT reading), I / Cell viability (MTT reading), II / Cell viability (MTT reading), III / Cell viability (MTT reading), Average: absorbance at 570 nm; conditions: 48 hours; for Cell viability (MTT reading), I: replicate I; for Cell viability (MTT reading), II: replicate II; for Cell viability (MTT reading), III: replicate III
Experimental: (§7) Cell lines used in the present disclosure include human chronic myelogenous leukemia (CML) cell line K562, Imatinib-resistant K562 cell line K562R, human pancreatic carcinoma, epithelial-like cell line PANC-1, human pancreatic cancer cell line BxPc-3, human large cell lung cancer cell line SEG-1, human esophageal squamous cell carcinoma line 81T/VGH and human esophageal adenocarcinoma line BE-3. Each cell lines were cultured and maintained in Dulbecco's modified Eagle media (DMEM) supplemented with 10% fetal calf serum, 100 IU/ml penicillin, 100 μg/ml streptomycin, and 2 mM glutamine in 5% CO2 at 37° C.
(§8) The absorbance of the solution at 570 nm was measured by spectrophotometer.

[5] = tested on: imatinib resistant CML K562R cells; experiment: Liu's staining, morphology of imatinib resistant CML K562R cells; conditions: 20 μM, indicates apoptosis and mitotic arrest
Text: as §3

p-Chk-2 = experiment: Immunoblot analysis of p-Chk-2 in K562R cells; conditions: FIG. 8
Experimental: as §1

BE-3 cells = experiment: MTT cell viability assay on BE-3 cells; set-up: key to Cell viability (MTT reading), I / Cell viability (MTT reading), II / Cell viability (MTT reading), Average / Cell viability (MTT reading), III: absorbance at 570 nm; conditions: for Cell viability (MTT reading), I: replicate I; for Cell viability (MTT reading), II: replicate II
Experimental: as §7, §8

CS(=O)(=O)CCCCCCN=C=S [I7557, 6-methylsulfonylhexyl isothiocyanate]
level of p-Chk-1 vs control (p-Chk-1): decreased
level of phosphorylated Plk-1 vs control (p-Plk-1): increased
Cell Cycle (%) G0/G1 (PANC-1 cells [1]; 10 μM): 45.43 ± 1.27%
Cell Cycle (%) G2/M (PANC-1 cells [1]; 10 μM): 28.38 ± 2.41%
Cell Cycle (%) S (PANC-1 cells [1]; 10 μM): 26.19 ± 3.28%
Cell Cycle (%) Sub-G1% (PANC-1 cells [1]; 10 μM): 0.79 ± 0.05%
Cell Cycle (%) G0/G1 (PANC-1 cells [1]; 20 μM): 24.71 ± 2.98%
Cell Cycle (%) G2/M (PANC-1 cells [1]; 20 μM): 55.84 ± 0.63%
Cell Cycle (%) S (PANC-1 cells [1]; 20 μM): 19.45 ± 3.32%
Cell Cycle (%) Sub-G1% (PANC-1 cells [1]; 20 μM): 2.05 ± 0.44%
level of p-cdc2 kinase vs control (p-Cdc2 kinase): decreased
Cell Cycle (%) G0/G1 ([2]; 5 μM): 30.79 ± 2.28%
Cell Cycle (%) G2/M ([2]; 5 μM): 22.84 ± 0.60%
Cell Cycle (%) S ([2]; 5 μM): 46.38 ± 1.73%
Cell Cycle (%) Sub-G1% ([2]; 5 μM): 0.52 ± 0.07%
Cell Cycle (%) G0/G1 ([2]; 10 μM): 30.52 ± 0.96%
Cell Cycle (%) G2/M ([2]; 10 μM): 18.40 ± 1.16%
Cell Cycle (%) S ([2]; 10 μM): 51.08 ± 0.36%
Cell Cycle (%) Sub-G1% ([2]; 10 μM): 1.18 ± 0.08%
Cell Cycle (%) G0/G1 ([2]; 20 μM): 11.54 ± 6.51%
Cell Cycle (%) G2/M ([2]; 20 μM): 65.10 ± 8.16%
Cell Cycle (%) S ([2]; 20 μM): 23.36 ± 2.45%
Cell Cycle (%) Sub-G1% ([2]; 20 μM): 5.33 ± 1.46%
β-tubulin levels vs control cells (β-tubulin): lowered
levels of phosphorylated histone H3 vs control cells [3]: significantly higher
Number of colonies (clonogenic assay) (PANC-1 cells [4]; PANC-1, 5 μM pre-treatment 24 hours, radiation 0 Gy): 60
Number of colonies (clonogenic assay) (PANC-1 cells [4]; PANC-1, 5 μM pre-treatment 24 hours, radiation 0.5 Gy): 63
Number of colonies (clonogenic assay) (PANC-1 cells [4]; PANC-1, 5 μM pre-treatment 24 hours, radiation 1 Gy): 59
Number of colonies (clonogenic assay) (PANC-1 cells [4]; PANC-1, 5 μM pre-treatment 24 hours, radiation 2 Gy): 48
Number of colonies (clonogenic assay) (PANC-1 cells [4]; PANC-1, 5 μM pre-treatment 24 hours, radiation 4 Gy): 20
susceptibility of cells to radiation treatment (PANC-1 cells [4]; PANC-1, 10 μM): enhancing the susceptibility
Number of colonies (clonogenic assay) (PANC-1 cells [4]; PANC-1, 10 μM pre-treatment 24 hours, radiation 0 Gy): 41
Number of colonies (clonogenic assay) (PANC-1 cells [4]; PANC-1, 10 μM pre-treatment 24 hours, radiation 0.5 Gy): 26
Number of colonies (clonogenic assay) (PANC-1 cells [4]; PANC-1, 10 μM pre-treatment 24 hours, radiation 1 Gy): 35
Number of colonies (clonogenic assay) (PANC-1 cells [4]; PANC-1, 10 μM pre-treatment 24 hours, radiation 2 Gy): 19
Number of colonies (clonogenic assay) (PANC-1 cells [4]; PANC-1, 10 μM pre-treatment 24 hours, radiation 4 Gy): 6
level of cyclin B1 vs control (cyclin B1): increased
Number of colonies (clonogenic assay) (BxPC-3 cells; BxPC-3, 5 μM pre-treatment 24 hours, radiation 0 Gy): 33
Number of colonies (clonogenic assay) (BxPC-3 cells; BxPC-3, 5 μM pre-treatment 24 hours, radiation 0.5 Gy): 37
Number of colonies (clonogenic assay) (BxPC-3 cells; BxPC-3, 5 μM pre-treatment 24 hours, radiation 1 Gy): 39
Number of colonies (clonogenic assay) (BxPC-3 cells; BxPC-3, 5 μM pre-treatment 24 hours, radiation 2 Gy): 29
Number of colonies (clonogenic assay) (BxPC-3 cells; BxPC-3, 5 μM pre-treatment 24 hours, radiation 4 Gy): 9
Number of colonies (clonogenic assay) (BxPC-3 cells; BxPC-3, 10 μM pre-treatment 24 hours, radiation 0 Gy): 16
Number of colonies (clonogenic assay) (BxPC-3 cells; BxPC-3, 10 μM pre-treatment 24 hours, radiation 0.5 Gy): 15
Number of colonies (clonogenic assay) (BxPC-3 cells; BxPC-3, 10 μM pre-treatment 24 hours, radiation 1 Gy): 8
Number of colonies (clonogenic assay) (BxPC-3 cells; BxPC-3, 10 μM pre-treatment 24 hours, radiation 2 Gy): 7
Number of colonies (clonogenic assay) (BxPC-3 cells; BxPC-3, 10 μM pre-treatment 24 hours, radiation 4 Gy): 1
susceptibility of cells to radiation treatment (BxPC-3 cells; BxPc-3, 10 μM): enhancing the susceptibility
Cell viability (MTT reading), Average (81T/VGH cells; 10 μM): 1.514 ± 0.104
Cell viability (MTT reading), I (81T/VGH cells; 10 μM): 1.324
Cell viability (MTT reading), II (81T/VGH cells; 10 μM): 1.682
Cell viability (MTT reading), III (81T/VGH cells; 10 μM): 1.537
Cell viability (MTT reading), Average (81T/VGH cells; 20 μM): 0.965 ± 0.086
Cell viability (MTT reading), I (81T/VGH cells; 20 μM): 0.804
Cell viability (MTT reading), II (81T/VGH cells; 20 μM): 0.991
Cell viability (MTT reading), III (81T/VGH cells; 20 μM): 1.100
inhibition at 10 µM (81T/VGH cells; Homo sapiens, 10 μM): 30.6 ± 5.18%
inhibition at 20 µM (81T/VGH cells; Homo sapiens, 20 μM): 55.4 ± 6.11%
Cell morphology after Liu's staining [5]: round up with an appearance of a balloon
level of p-Chk-2 vs control (p-Chk-2): decreased
Cell viability (MTT reading), Average (BE-3 cells; BE-3, 10 μM, 48 hours): 1.635 ± 0.078
Cell viability (MTT reading), I (BE-3 cells; BE-3, 10 μM, 48 hours): 1.581
Cell viability (MTT reading), II (BE-3 cells; BE-3, 10 μM, 48 hours): 1.534
Cell viability (MTT reading), Average (BE-3 cells; BE-3, 20 μM, 48 hours): 1.151 ± 0.028
Cell viability (MTT reading), I (BE-3 cells; BE-3, 20 μM, 48 hours): 1.105
Cell viability (MTT reading), II (BE-3 cells; BE-3, 20 μM, 48 hours): 1.147
Cell viability (MTT reading), III (BE-3 cells; BE-3, 20 μM, 48 hours, replicate III): 1.201
inhibition at 10 µM (BE-3 cells; Homo sapiens, BE-3, 10 μM, 48 hours): 26.8 ± 1.05%
inhibition at 20 µM (BE-3 cells; Homo sapiens, BE-3, 20 μM, 48 hours, read-out: % of inhibition): 48.4 ± 1%
inhibition at 20 µM (BE-3 cells; Homo sapiens, BE-3, 20 μM, read-out: cancerous cells' growth inhibition): ~50%
